System: L. acidophilus NCFM
Experiment: RNA-seq transcriptional analysis of L. acidophilus NCFM growing on plant glycosides
Format: cell-based, Lactobacillus acidophilus
[1] = LBA0329 Putative cell division protein, COG D
[2] = LBA0466 Hypothetical protein, COG C
[3] = LBA0500 MSM operon repressor, COG K
[4] = LBA0545 Hypothetical protein, COG L
[5] = LBA0547 Putative site-specific recombinase, COG L
[6] = LBA0573 Putative transcriptional regulator, COG K
[7] = LBA0607 Putative transcriptional regulator, COG K
[8] = LBA0672 Putative phosphate starvation inducible protein stress related, COG J
[9] = LBA0753 Multi-drug-type permease, COG GEPR
[10] = LBA0886 Sugar kinase-putative transcriptional regulator, COG KG
[11] = LBA0887 Hypothetical protein, COG C
[12] = LBA0897 Putative Cro-like protein, COG K
[13] = LBA0910 L-lactate dehydrogenase, COG C
[14] = LBA1021 Putative transcriptional regulator, COG K
[15] = LBA1220 Pyridine mercuric reductase, COG C
[16] = LBA1392 Mucus binding protein precursor Mub, COG J
[17] = LBA1411 Fumarate reductase flavoprotein subunit, COG CS
[18] = LBA1436 Glycerol uptake facilitator protein, COG G
[19] = LBA1457 Galactose-1-epimerase, COG G
[20] = LBA1458 Galactose-1-phosphate uridylyltransferase, COG G
[21] = LBA1462 Beta-galactosidase, COG G
[22] = LBA1463 Lactose permease, COG G
[23] = LBA1465 Transcription repressor of beta-galactosidasegene, COG K
[24] = LBA1467 Beta-galactosidase large subunit (lactase), COG G
[25] = LBA1468 Beta-galactosidase small subunit, COG G

`OCc1ccccc1O[C@@H]1O[C@H](CO)[C@@H](O)[C@H](O)[C@H]1O` [Salicin] was tested, and the “Log2 differential normalized TPM ratio compared to glucose” value (LBA0016 Fructokinase, COG KG) was 1.7, the “Log2 differential normalized TPM ratio compared to lactose” value (LBA0016 Fructokinase, COG KG) was 0.5 and the “Transcripts per million (rpm)” value (LBA0016 Fructokinase, COG KG) was 300.8 rpm. The “Log2 differential normalized TPM ratio compared to glucose” value [1] was 0.4, the “Log2 differential normalized TPM ratio compared to lactose” value [1] was 0 and the “Transcripts per million (rpm)” value [1] was 22.1 rpm. For the same compound, the “Log2 differential normalized TPM ratio compared to glucose” value [2] was 1.3, the “Log2 differential normalized TPM ratio compared to lactose” value [2] was -0.2 and the “Transcripts per million (rpm)” value [2] was 238.1 rpm. For the same compound, the “Log2 differential normalized TPM ratio compared to glucose” value [3] was 1.4, the “Log2 differential normalized TPM ratio compared to lactose” value [3] was −0.3 and the “Transcripts per million (rpm)” value [3] was 138.7 rpm. The “Log2 differential normalized TPM ratio compared to glucose” value [4] was 1.8, the “Log2 differential normalized TPM ratio compared to lactose” value [4] was −0.3 and the “Transcripts per million (rpm)” value [4] was 259 rpm. The “Log2 differential normalized TPM ratio compared to glucose” value [5] was 1.5, the “Log2 differential normalized TPM ratio compared to lactose” value [5] was −0.3 and the “Transcripts per million (rpm)” value [5] was 32.5 rpm. For the same compound, the “Log2 differential normalized TPM ratio compared to glucose” value [6] was −1.1, the “Log2 differential normalized TPM ratio compared to lactose” value [6] was −1.2 and the “Transcripts per million (rpm)” value [6] was 43.7 rpm. The “Log2 differential normalized TPM ratio compared to glucose” value [7] was 0.8, the “Log2 differential normalized TPM ratio compared to lactose” value [7] was 0.3 and the “Transcripts per million (rpm)” value [7] was 86.7 rpm. The “Log2 differential normalized TPM ratio compared to glucose” value [8] was 1.1, the “Log2 differential normalized TPM ratio compared to lactose” value [8] was 0.2 and the “Transcripts per million (rpm)” value [8] was 3596.1 rpm. The “Log2 differential normalized TPM ratio compared to glucose” value [9] was 0.5, the “Log2 differential normalized TPM ratio compared to lactose” value [9] was 1.2 and the “Transcripts per million (rpm)” value [9] was 70.4 rpm. For the same compound, the “Log2 differential normalized TPM ratio compared to glucose” value [10] was 0.3, the “Log2 differential normalized TPM ratio compared to lactose” value [10] was 0 and the “Transcripts per million (rpm)” value [10] was 8.1 rpm. The “Log2 differential normalized TPM ratio compared to glucose” value [11] was 1.5, the “Log2 differential normalized TPM ratio compared to lactose” value [11] was 0.2 and the “Transcripts per million (rpm)” value [11] was 160.2 rpm. The “Log2 differential normalized TPM ratio compared to glucose” value [12] was 0.1, the “Log2 differential normalized TPM ratio compared to lactose” value [12] was 2.5 and the “Transcripts per million (rpm)” value [12] was 2.8 rpm. The “Log2 differential normalized TPM ratio compared to glucose” value [13] was 1.2, the “Log2 differential normalized TPM ratio compared to lactose” value [13] was 0.2 and the “Transcripts per million (rpm)” value [13] was 301.8 rpm. The “Log2 differential normalized TPM ratio compared to glucose” value [14] was −0.5, the “Log2 differential normalized TPM ratio compared to lactose” value [14] was −0.8 and the “Transcripts per million (rpm)” value [14] was 108.6 rpm. For the same compound, the “Log2 differential normalized TPM ratio compared to glucose” value [15] was 1.7, the “Log2 differential normalized TPM ratio compared to lactose” value [15] was 0.7 and the “Transcripts per million (rpm)” value [15] was 654.9 rpm. For the same compound, the “Log2 differential normalized TPM ratio compared to glucose” value [16] was 0.1, the “Log2 differential normalized TPM ratio compared to lactose” value [16] was 0.3 and the “Transcripts per million (rpm)” value [16] was 114.4 rpm. The “Log2 differential normalized TPM ratio compared to glucose” value [17] was 1.4, the “Log2 differential normalized TPM ratio compared to lactose” value [17] was 0.3 and the “Transcripts per million (rpm)” value [17] was 5.9 rpm. The “Log2 differential normalized TPM ratio compared to glucose” value [18] was 3.8, the “Log2 differential normalized TPM ratio compared to lactose” value [18] was 0 and the “Transcripts per million (rpm)” value [18] was 37.6 rpm. For the same compound, the “Log2 differential normalized TPM ratio compared to glucose” value [19] was 1.9, the “Log2 differential normalized TPM ratio compared to lactose” value [19] was −3.7 and the “Transcripts per million (rpm)” value [19] was 55.9 rpm. For the same compound, the “Log2 differential normalized TPM ratio compared to glucose” value [20] was 1.8, the “Log2 differential normalized TPM ratio compared to lactose” value [20] was −3.8 and the “Transcripts per million (rpm)” value [20] was 48.4 rpm. For the same compound, the “Log2 differential normalized TPM ratio compared to glucose” value (LBA1459 Galactokinase, COG G) was 0.8, the “Log2 differential normalized TPM ratio compared to lactose” value (LBA1459 Galactokinase, COG G) was −3.9 and the “Transcripts per million (rpm)” value (LBA1459 Galactokinase, COG G) was 42.2 rpm. For the same compound, the “Log2 differential normalized TPM ratio compared to glucose” value [21] was −0.1, the “Transcripts per million (rpm)” value [21] was 16.8 rpm and the “Log2 differential normalized TPM ratio compared to glucose” value [22] was 0.1. For the same compound, the “Log2 differential normalized TPM ratio compared to lactose” value [22] was −4.6, the “Transcripts per million (rpm)” value [22] was 62.2 rpm and the “Log2 differential normalized TPM ratio compared to glucose” value (LBA1464 Transposase, COG L) was 0. For the same compound, the “Log2 differential normalized TPM ratio compared to lactose” value (LBA1464 Transposase, COG L) was −2.4, the “Transcripts per million (rpm)” value (LBA1464 Transposase, COG L) was 182.7 rpm and the “Log2 differential normalized TPM ratio compared to glucose” value [23] was −0.1. The “Log2 differential normalized TPM ratio compared to lactose” value [23] was −3.2, the “Transcripts per million (rpm)” value [23] was 52.9 rpm and the “Log2 differential normalized TPM ratio compared to glucose” value [24] was 1.5. The “Log2 differential normalized TPM ratio compared to lactose” value [24] was −7.3, the “Transcripts per million (rpm)” value [24] was 14.9 rpm and the “Log2 differential normalized TPM ratio compared to glucose” value [25] was 1. The “Log2 differential normalized TPM ratio compared to lactose” value [25] was −5.4 and the “Transcripts per million (rpm)” value [25] was 43.3 rpm.

Source: US20200222474A1, “COMPOSITIONS AND METHODS FOR INCREASING PHYTOCHEMICAL BIOAVAILABLITY AND BIOACTIVITY” (North Carolina State University, priority 2017, published 2020)
